EPA's CvTdb concentration-time database

How the values were obtained:
[1] = tested on: rat; test: amount in urine after dosing (umol); conditions: dosed: tert-amyl methyl ether, 38.4 ppm, inhalation, duration: 4 hr, F344 (Harlan Winkelmann)
[2] = tested on: rat; test: concentration in blood after dosing; negative times count back from the end of exposure; conditions: dosed: pyrene, inhalation, duration: 95 min, male, Wistar, radiolabel
[3] = tested on: rat; test: concentration in blood after dosing; conditions: dosed: m-xylene, 5000 ppm, dermal, duration: 4 hr, male, F344
[4] = tested on: rat; test: concentration in blood after dosing; conditions: dosed: m-xylene, 5000 ppm, dermal, duration: 4 hr, male, F344; remark: listed apart in the source
[5] = tested on: rat; test: concentration in blood after dosing; conditions: dosed: m-xylene, 5000 ppm, dermal, duration: 4 hr, male, F344; remark: listed apart in the source
[6] = tested on: rat; test: concentration in blood after dosing; conditions: dosed: m-xylene, 5000 ppm, dermal, duration: 4 hr, male, F344; remark: listed apart in the source
[7] = tested on: rat; test: concentration in blood after dosing; conditions: dosed: m-xylene, 5000 ppm, dermal, duration: 4 hr, male, F344; remark: listed apart in the source
[8] = tested on: rat; test: concentration in blood after dosing; conditions: dosed: m-xylene, 5000 ppm, dermal, duration: 4 hr, male, F344; remark: listed apart in the source

CC(C)(O)CC(=O)O [3-hydroxy-3-methyl butyrate]
[1]
Conditions	amount in urine
6.001 h	0.652
12.07 h	0.695
18.1 h	0.787
24.1 h	0.425
30 h	0.178
36.09 h	0.517
42.12 h	0.736
48.11 h	0.23

c1cc2ccc3cccc4ccc(c1)c2c34 [total 14C-pyrene]
[2]
Conditions	concentration in blood [ng/mL]
-28 s, 800 mg/m^3, during exposure	40700
-1.353 h, 200 mg/m^3, during exposure	659
-1.349 h, 500 mg/m^3, during exposure	2480
-1.122 h, 500 mg/m^3, during exposure	6670
-1.119 h, 800 mg/m^3, during exposure	8210
-1.09 h, 200 mg/m^3, during exposure	1400
-0.7764 h, 800 mg/m^3, during exposure	19900
-0.7622 h, 200 mg/m^3, during exposure	2040
-0.7591 h, 500 mg/m^3, during exposure	10200
-0.4362 h, 800 mg/m^3, during exposure	29200
-0.434 h, 200 mg/m^3, during exposure	2250
-0.4242 h, 500 mg/m^3, during exposure	12700
0.2501 h, 200 mg/m^3	1940
0.253 h, 500 mg/m^3	16900
0.263 h, 800 mg/m^3	41000
0.5176 h, 500 mg/m^3	14700
0.5339 h, 800 mg/m^3	41000
0.8638 h, 800 mg/m^3	43500
0.87 h, 500 mg/m^3	12400
0.875 h, 200 mg/m^3	1190
1.216 h, 500 mg/m^3	9070
1.222 h, 800 mg/m^3	42700
1.227 h, 200 mg/m^3	1020
1.722 h, 500 mg/m^3	6760
1.724 h, 800 mg/m^3	34600
1.733 h, 200 mg/m^3	990
2.225 h, 500 mg/m^3	5300
2.235 h, 800 mg/m^3	30300
2.245 h, 200 mg/m^3	837
2.901 h, 200 mg/m^3	773
2.91 h, 800 mg/m^3	24100
2.926 h, 500 mg/m^3	4130
3.568 h, 800 mg/m^3	21000
3.582 h, 200 mg/m^3	714
3.588 h, 500 mg/m^3	3380
4.567 h, 800 mg/m^3	15500
4.569 h, 200 mg/m^3	695
4.577 h, 500 mg/m^3	3050
6.023 h, 800 mg/m^3	11100
6.027 h, 500 mg/m^3	2510
7.481 h, 800 mg/m^3	9810
32 min, 200 mg/m^3	1460
34 s, 500 mg/m^3	15900
79 s, 200 mg/m^3	2240

Cc1cccc(C)c1 [m-xylene]
concentration in blood [ng/mL]
Conditions	[3]	[4]	[5]	[6]	[7]	[8]
0.5 h	2860	154	154	6020	3960	5380
1 h	2950	4110	5860	7020	3790	9470
2 h	8160	4350	3840	3450	25600	12100
3 h	8020	8850	3760	9500	5950	15900
4 h	9030	10500	5030	11400	9940	16700
